In this test the target is T1, murine MAdCAM-1 (MAdCAM-1/mCk fusion protein); α4β7-bearing HUT 78 cells (Homo sapiens, UniProt P13612+P26010).
T1 construct: host or cells: HUT 78 cells (endogenous α4β7); The MAdCAM-1/mCk partner was made in house in baculovirus-infected Sf9 insect cells, used as neat supernatant and captured by rat anti-mCk antibody
Put plainly: Adhesion of HUT 78 cells to MAdCAM-1/mCk fusion protein bound via capture antibody. The format is cell-based. To be noted: for IC50: HUT 78 cell adhesion to MAdCAM-1/mCk, average of two determinations. On the procedure:
The compounds of the present invention were evaluated for their biological properties.
A soluble fusion protein comprising murine MAdCAM-1 was produced in a baculovirus expression system and used in the adhesion assay. A fusion gene in which sequences encoding the signal peptide and extracellular domain of murine MAdCAM-1 were fused to sequences encoding a constant region of the murine kappa light chain (mCk) was constructed, and cloned into a baculovirus shuttle vector. Fusion protein produced from the resulting construct contained the integrin binding sequences of murine MAdCAM-1 at the amino-terminus, and the mCk sequence at the carboxy-terminus. Recombinant baculovirus encoding the fusion protein was harvested from infected Sf9 insect cells.
Human T-cell lymphoma cells (HUT 78 cells) activated with Mn^+2 were used for the adhesion assay in a 96-well format. HUT 78 cells were labelled by preincubation with ECECF-AM stain (Molecular Probes). Assays were conducted in a final volume of 200 μl. The adhesion of HUT 78 cells to MAdCAM-1/mCk fusion protein bound to wells via rat anti-mCk capture antibody was assessed in the presence or absence of each compound. […] Percent inhibition and IC50 values were determined.
HUT 78 cells (a human T cell lymphoma line; American Type Culture Collection, Accession No. ATCC TIB 161) were maintained in culture for up to one month in RPMI 1640 supplemented with 10% FCS, 20 mM HEPES, and Pen-Strep (1:100). Just prior to use in adhesion assays, cells were labeled with BCECF-AM as follows: 1×10^7 cells were pelleted at 1000 rpm for 10 minutes and resuspended in 25 mL cold PBS (Phosphate Buffered Saline). The cells were pelleted again, resuspended in cold PBS, and pelleted again. The cell pellet was resuspended in 25 ml PBS and labeled with 50 μl BCECF-AM (1 μg/μL in DMSO) for 30 minutes at 37° C. (BCECF-AM; 2′,7′-bis-(2-carboxyethyl)-5-(and-6)-carboxyflourescein, acetoxymethyl ester). The labeled cells were pelleted at 700 rpm for 10 minutes, resuspended in 25 ml cold Assay Buffer and pelleted.
The assay was performed in a 96-well format. Plates were coated overnight at 4° C. with 53 μl/well of a 5 μg/mL solution of rat anti-mCk in carbonate buffer. The plates were blocked for 1 hour at 37° C. with 100 μL/well of 1% BSA in PBS. The BSA/PBS solution was removed, and 50 μL of MAdCAM-mCk supernatant was added neat to each well. The assay was conducted under conditions in which capture antibody was the limiting reagent.
Cell adhesion was measured in the presence or absence of compounds. The compounds were resuspended in 100% DMSO, subsequently diluted 1:10 in water, and finally diluted again 1:10 in the assay: 50 μL of 2X Assay Bufler, 30 μL water, 20 μL of compound were added to each well. […] Cell adhesion occurred in 30 minutes at ambient temperature, after which plates were washed with 50 mM Tris/2 mM MnCl2, pH 7.2 using an EL 404 Microplate Autowasher (BIO-TEK Instruments) using the following wash parameters: wash volume=500 μL; two wash cycles; wash depth=80; aspirating after each wash.
Additional determinations were conducted as needed, so that each IC50 was determined over a range which encompassed the IC50. Over this range, Four different concentrations were tested in duplicate.
For each compound, a ratio was determined as follows: An average of the readings from duplicate wells was divided by an average of eight control wells (adhesion in the absence of any compound). […] In addition, the concentration (μM) of compound used was plotted against the resulting ratios.
The IC50 was then determined using Kaleidograph software (Abelbeck Software). The complete procedure was repeated again using duplicate wells for each point.

Setting [1] is: HuT78, 500 μM compound, HUT 78 cells, Mn2+ activated, read-out: % Adhesion Inhibition 500 μM.

Where two headings read alike, the source gives them in different places. Bridge positions count the residues as written; N and C are the ends. Square brackets hold non-standard residues; d marks the D form. Peptide text beside a SMILES is read from it. * marks the point of attachment. Butanoyl(4-pyren-1-yl) = O=C(CCCc1ccc2ccc3cccc4ccc1c2c34)*; NMeL = CN[C@@H](CC(C)C)C(=O)O

Usually inhibition stands for the relative decrease from the control value, in per cent. One may read the IC50 as the concentration at which inhibition is half-maximal.

T1 sequence (P13612 34-1032): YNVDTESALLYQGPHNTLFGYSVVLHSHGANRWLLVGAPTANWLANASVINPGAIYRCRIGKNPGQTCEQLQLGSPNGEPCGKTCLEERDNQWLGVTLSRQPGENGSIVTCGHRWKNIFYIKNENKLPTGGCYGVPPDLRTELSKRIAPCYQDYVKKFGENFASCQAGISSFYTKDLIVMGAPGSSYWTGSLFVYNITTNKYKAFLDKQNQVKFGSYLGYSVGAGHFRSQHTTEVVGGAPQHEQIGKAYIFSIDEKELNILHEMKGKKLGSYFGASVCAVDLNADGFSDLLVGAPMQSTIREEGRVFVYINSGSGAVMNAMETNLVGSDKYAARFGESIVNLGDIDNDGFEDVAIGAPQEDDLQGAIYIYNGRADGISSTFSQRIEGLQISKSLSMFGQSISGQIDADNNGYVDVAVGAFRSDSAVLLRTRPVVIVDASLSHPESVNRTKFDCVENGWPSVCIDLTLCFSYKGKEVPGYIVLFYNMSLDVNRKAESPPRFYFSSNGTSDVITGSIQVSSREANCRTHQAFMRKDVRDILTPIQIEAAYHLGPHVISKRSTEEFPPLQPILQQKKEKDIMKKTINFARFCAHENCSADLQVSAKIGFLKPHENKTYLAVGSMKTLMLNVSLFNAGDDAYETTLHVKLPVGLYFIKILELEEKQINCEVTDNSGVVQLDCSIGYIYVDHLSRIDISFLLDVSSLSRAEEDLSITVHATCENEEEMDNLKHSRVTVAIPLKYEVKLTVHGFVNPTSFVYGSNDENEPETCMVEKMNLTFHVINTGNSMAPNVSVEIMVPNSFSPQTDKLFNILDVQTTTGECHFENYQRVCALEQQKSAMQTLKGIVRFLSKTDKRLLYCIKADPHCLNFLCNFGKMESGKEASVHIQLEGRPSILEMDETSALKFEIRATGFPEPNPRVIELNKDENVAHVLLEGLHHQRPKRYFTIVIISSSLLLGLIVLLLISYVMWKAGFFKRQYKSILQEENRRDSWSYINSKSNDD
T1 sequence (P26010 20-798): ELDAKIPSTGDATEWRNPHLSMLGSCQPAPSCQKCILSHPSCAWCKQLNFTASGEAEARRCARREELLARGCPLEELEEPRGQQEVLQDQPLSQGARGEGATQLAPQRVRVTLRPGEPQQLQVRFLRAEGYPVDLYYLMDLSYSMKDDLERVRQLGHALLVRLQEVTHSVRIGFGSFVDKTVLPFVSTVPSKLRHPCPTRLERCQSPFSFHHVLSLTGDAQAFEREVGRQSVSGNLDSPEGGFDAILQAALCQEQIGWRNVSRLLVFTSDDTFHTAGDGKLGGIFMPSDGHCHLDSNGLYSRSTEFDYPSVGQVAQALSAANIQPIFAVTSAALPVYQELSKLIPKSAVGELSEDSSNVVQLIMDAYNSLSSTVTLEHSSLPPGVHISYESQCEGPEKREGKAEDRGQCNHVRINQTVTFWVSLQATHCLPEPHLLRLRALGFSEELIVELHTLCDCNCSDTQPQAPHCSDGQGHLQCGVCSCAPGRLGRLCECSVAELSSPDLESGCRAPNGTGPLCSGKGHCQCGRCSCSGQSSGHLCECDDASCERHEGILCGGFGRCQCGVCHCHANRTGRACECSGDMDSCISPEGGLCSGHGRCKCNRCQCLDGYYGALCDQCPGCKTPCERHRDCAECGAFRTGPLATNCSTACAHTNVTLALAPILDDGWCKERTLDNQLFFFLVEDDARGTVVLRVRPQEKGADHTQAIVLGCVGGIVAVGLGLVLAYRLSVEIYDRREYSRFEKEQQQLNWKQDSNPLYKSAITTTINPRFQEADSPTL

In the case of `CC(=O)N[C@H]1CSSC[C@@H](C(N)=O)NC(=O)[C@H](CC(C)C)NC(=O)[C@H](CO)NC(=O)[C@H]([C@@H](C)O)NC(=O)[C@H](CC(=O)O)NC(=O)[C@H](CC(C)C)NC1=O` [Example 4, Ac-Cys*-Leu-Asp-Thr-Ser-Leu-Cys*] (Ac-CLDTSLC-NH2; disulfide 1-7), the inhibition at 250 µM (HuT78, @250 μM compound, HUT 78 cells, read-out: % Adhesion Inhibition) amounted to 51%. Compound `CC(=O)N[C@H]1CSSC[C@@H](C(N)=O)NC(=O)CNC(=O)[C@H](CC(C)C)NC(=O)[C@H](CO)NC(=O)[C@H]([C@@H](C)O)NC(=O)[C@H](CC(=O)O)NC(=O)[C@H](CC(C)C)NC(=O)CNC1=O` [Example 5] (Ac-CGLDTSLGC-NH2; disulfide 1-9) had an inhibition at 200 µM (HuT78, @200 μM compound, HUT 78 cells) of 45%. For `CC(=O)N[C@@H](CCCNC(=N)N)C(=O)NCC(=O)N[C@@H](CC(C)C)C(=O)N[C@@H](CC(=O)O)C(=O)N[C@H](C(=O)N[C@@H](CO)C(=O)N[C@@H](CC(C)C)C(N)=O)[C@@H](C)O` [Example 8, Ac-Arg-Gly-Leu-Asp-Thr-Ser-Leu] (Ac-RGLDTSL-NH2), the inhibition at 500 µM under setting [1] stood at 35%. Still for that read-out and setting: the result for `CC(=O)NCC(=O)N[C@@H](CC(C)C)C(=O)N[C@@H](CC(=O)O)C(=O)N[C@H](C(=O)N[C@@H](CO)C(=O)N[C@@H](CC(C)C)C(N)=O)[C@@H](C)O` [Example 9, Ac-Gly-Leu-Asp-Thr-Ser-Leu] (Ac-GLDTSL-NH2) reads 58%.

Take `CC(=O)N[C@@H](CCCNC(=N)N)C(=O)NCC(=O)N[C@@H](CC(C)C)C(=O)N[C@@H](CC(=O)O)C(=O)N[C@H](C(=O)N[C@@H](CO)C(N)=O)[C@@H](C)O` [Example 12, Ac-Arg-Gly-Leu-Asp-Thr-Ser] (Ac-RGLDTS-NH2): the IC50 (read-out: IC50) was 1790 µM. Besides, the inhibition at 500 µM under setting [1] was 31%. `CC(=O)N(C)[C@@H](CC(C)C)C(=O)N[C@@H](CC(C)C)C(=O)N[C@@H](CC(=O)O)C(=O)N[C@H](C(=O)N[C@@H](CO)C(=O)N[C@@H](CC(C)C)C(N)=O)[C@@H](C)O` [Example 17, Ac-MeLeu-Leu-Asp-Thr-Ser-Leu] (Ac-[NMeL]LDTSL-NH2): the inhibition at 500 µM under setting [1] stood at 28%. Turning to `CC(C)C[C@H](NC(=O)[C@H](CO)NC(=O)[C@@H](NC(=O)[C@H](CC(=O)O)NC(=O)[C@H](CC(C)C)NC(=O)CCCCCc1ccccc1)[C@@H](C)O)C(N)=O` [Example 18, Phx-Leu-Asp-Thr-Ser-Leu], the IC50 (read-out: IC50) was determined as 818 µM. For the same compound, the inhibition at 500 µM under setting [1] was 32%. For the compound `CC(C)Cc1ccc(C(C)C(=O)N[C@@H](CC(C)C)C(=O)N[C@@H](CC(=O)O)C(=O)N[C@H](C(=O)N[C@@H](CO)C(=O)N[C@@H](CC(C)C)C(N)=O)[C@@H](C)O)cc1` (stereo partly drawn) [Example 19, Impa-Leu-Asp-Thr-Ser-Leu], the IC50 (read-out: IC50) was 1140 µM. The inhibition at 500 µM under setting [1] was 44%.

Regarding `CC(C)C[C@H](NC(=O)[C@H](CO)NC(=O)[C@@H](NC(=O)[C@H](CC(=O)O)NC(=O)[C@H](CC(C)C)NC(=O)Cc1ccc(-c2ccccc2)cc1)[C@@H](C)O)C(N)=O` [Example 20, Bipa-Leu-Asp-Thr-Ser-Leu], the IC50 (read-out: IC50) turned out to be 485 µM. Under setting [1], the inhibition at 500 µM came out at 54%. Turning to `CC(C)C[C@H](NC(=O)[C@H](CO)NC(=O)[C@@H](NC(=O)[C@H](CC(=O)O)NC(=O)[C@H](CC(C)C)NC(=O)Cc1cccc2ccccc12)[C@@H](C)O)C(N)=O` [Example 21, Npa-Leu-Asp-Thr-Ser-Leu], where the note is “read-out: IC50”, the IC50 turned out to be 548 µM. For the same compound, the inhibition at 500 µM under setting [1] came out at 39%. The like results for `CCCCCCCc1ccc(C(=O)N[C@@H](CC(C)C)C(=O)N[C@@H](CC(=O)O)C(=O)N[C@H](C(=O)N[C@@H](CO)C(=O)N[C@@H](CC(C)C)C(N)=O)[C@@H](C)O)cc1` [Example 22, Hbz-Leu-Asp-Thr-Ser-Leu] were, in that order, 401 µM and 51%. Turning to `CC(C)C[C@H](NC(=O)[C@H](CO)NC(=O)[C@@H](NC(=O)[C@H](CC(=O)O)NC(=O)[C@H](CC(C)C)NC(=O)CCCc1ccc2ccc3cccc4ccc1c2c34)[C@@H](C)O)C(N)=O` [Example 23, Pba-Leu-Asp-Thr-Ser-Leu], the inhibition at 50 µM (HuT78, read-out: % Adhesion Inhibition) was found to be 88%. The same compound showed an IC50 (IC50 (μM)) of 2.8 µM.

For `CC(C)C[C@H](NC(=O)[C@H](CO)NC(=O)[C@@H](NC(=O)[C@H](CC(=O)O)NC(=O)[C@H](CC(C)C)NC(=O)C1C(C)(C)C1(C)C)[C@@H](C)O)C(N)=O` [Example 25, Tpc-Leu-Asp-Thr-Ser-Leu], the IC50 (read-out: IC50) was 121 µM. Also, under setting [1], the inhibition at 500 µM is 39%. For the compound `CC(C)C[C@H](NC(=O)[C@H](CO)NC(=O)[C@@H](NC(=O)[C@H](CC(=O)O)NC(=O)[C@H](CC(C)C)NC(=O)Cc1ccccc1)[C@@H](C)O)C(N)=O` [Example 26, Pha-Leu-Asp-Thr-Ser-Leu], the inhibition at 500 µM (HuT78, read-out: % Adhesion Inhibition 500 μM) came out at 38%. Where the note is “IC50 (μM)”, this compound returned an IC50 of 2130 µM. Turning to `CC(C)C[C@H](NC(=O)[C@H](CO)NC(=O)[C@@H](NC(=O)[C@H](CC(=O)O)NC(=O)[C@H](CC(C)C)NC(=O)C(c1ccccc1)(c1ccccc1)c1ccccc1)[C@@H](C)O)C(N)=O` [Example 28, Tpa-Leu-Asp-Thr-Ser-Leu], the IC50 (read-out: IC50) is 0.3 µM. `CC(C)C[C@H](NC(=O)[C@H](CO)NC(=O)[C@@H](NC(=O)[C@H](CC(=O)O)NC(=O)[C@H](CC(C)C)NC(=O)Cc1ccc2ccc3cccc4ccc1c2c34)[C@@H](C)O)C(N)=O` [Example 29, Paa-Leu-Asp-Thr-Ser-Leu] gave an IC50 (IC50 (μM)) of 0.5 µM. On the same count and under the same terms, the result for `CC(C)C[C@H](NC(=O)[C@H](CO)NC(=O)[C@@H](NC(=O)[C@H](CC(=O)O)NC(=O)[C@H](CC(C)C)NC(=O)[C@@H]1CCCN1C(=O)CCCc1ccc2ccc3cccc4ccc1c2c34)[C@@H](C)O)C(N)=O` [Example 30, Pba-Pro-Leu-Asp-Thr-Ser-Leu] ({Butanoyl(4-pyren-1-yl)}-PLDTSL-NH2) reads 47 µM. On to `CC(C)C[C@H](NC(=O)[C@H](CO)NC(=O)[C@@H](NC(=O)[C@H](CC(=O)O)NC(=O)[C@H](CC(C)C)NC(=O)C(c1ccccc1)c1ccccc1)[C@@H](C)O)C(N)=O` [Example 31, Dpa-Leu-Asp-Thr-Ser-Leu], for which the IC50 (read-out: IC50) stood at 11 µM. On the same count and under the same terms, the result for `CC(C)C[C@H](NC(=O)[C@H](CO)NC(=O)[C@@H](NC(=O)[C@H](CC(=O)O)NC(=O)[C@H](CC(C)C)NC(=O)c1cc(-c2ccccc2)cc(-c2ccccc2)c1)[C@@H](C)O)C(N)=O` [Example 32, Dphb-Leu-Asp-Thr-Ser-Leu] reads 15 µM. For the setting “IC50 (μM)”, `CC(C)C[C@H](NC(=O)[C@H](CO)NC(=O)[C@@H](NC(=O)[C@H](CC(=O)O)NC(=O)[C@H](CC(C)C)NC(=O)c1ccc2ccc3cccc4ccc1c2c34)[C@@H](C)O)C(N)=O` [Example 34, Pca-Leu-Asp-Thr-Ser-Leu] came in with an IC50 of 2.1 µM.

For the compound `CC(C)C[C@H](NC(=O)[C@H](CO)NC(=O)[C@@H](NC(=O)[C@H](CC(=O)O)NC(=O)[C@H](CC(C)C)NC(=O)CCCc1ccc2ccc3cccc4ccc1c2c34)[C@@H](C)O)C(N)=O` [Example 36, Pba-Leu-Asp-Thr-Ser-Leu], it took 4 µM to reach half-maximal inhibition (IC50 (μM)) (IC50). `CC(C)C[C@H](NC(=O)[C@H](CO)NC(=O)[C@@H](NC(=O)[C@H](CC(=O)O)NC(=O)[C@H](CC(C)C)NC(=O)CC(c1ccccc1)(c1ccccc1)c1ccccc1)[C@@H](C)O)C(N)=O` [Example 37, Tphp-Leu-Asp-Thr-Ser-Leu]: the IC50 (read-out: IC50) stood at 14 µM.

These data come from patent US20020103111A1, “Inhibitors of MAdCAM-1-mediated interactions and methods of use therefor” (Millennium Pharmaceuticals, Inc., priority 1996, published 2002).
